Series [1] has as its system MEFs transfected with OSKM. Kind of series: efficiency of iPSC generation from OSKM-transfected MEFs (ALP staining). The note with it: induced by OSKM, day 21 post-reprogramming. The format is cell-based, mouse. An excerpt:
C57/B6 mice were used in this study and all procedures involving animals were approved by the Animals Committee of the Taipei Veterans General Hospital. Murine iPSCs were generated from mouse embryonic fibroblasts (MEFs) derived from 13.5-day-old embryos of C57/B6 mice. The iPSCs were reprogrammed by the transduction of retroviral vectors encoding four transcription factors (Oct4/Sox2/Klf4/c-Myc; OSKM), or three transcription factors (Oct4/Sox2/Klf4; OSK), as described previously (Li et al., 2011). Total of 12 clones (Re-1 to Re-12; OSKM) were selected and established. The clone of Re-7 iPSCs had been stably passed to more than 100 th passages with high pluripotency. Therefore, Re-7 iPSCs were selected and widely used in this study. Briefly, undifferentiated iPSCs were routinely cultured and expanded on mitotically-inactivated MEFs (50,000 cells/cm 2) in six-well culture plates (BD Technology) in the presence of 0.3% leukemia inhibitory factor in an iPSC medium consisting of Dulbecco's Modified Eagle's Medium (DMEM; Sigma) supplemented with 15% fetal bovine serum (FBS; Invitrogen), […] minimal essential medium (MEM) nonessential amino acids (Sigma), 0.55 mM 2-mercaptoethanol (Gibco), and antibiotics (Invitrogen). Every three to four days, colonies were detached with 0.2% collagenase IV (Invitrogen), dissociated into single cells with 0.025% trypsin (Sigma) and 0.1% chicken serum (Invitrogen) in PBS, and replated onto MEFs. For embryoid body (EB) formation, iPSCs were dissociated into a single cell suspension by 0.25% trypsin-EDTA and plated onto non-adherent culture dishes in DMEM with 15% FBS, […] MEM nonessential amino acids, 0.55 mM 2-mercaptoethanol, and antibiotics at a density of 2×10^6 cells/100 mm plate. After 4 days in floating culture, EBs were transferred onto gelatin-coated plates and maintained in the same medium for 24 h. EBs were then assigned for in vitro differentiation into tridermal lineages as previously described (Li et al., 2011). […]

The subject of series [2] is Mice (C57/B6). The experiment in a line: CCl4-induced acute liver injury model. The format is in vivo, mouse. The note with it: CCl4-injured mice. As for the experimental part:
(§1) Mice (C57/B6, 8 to 10 weeks) were housed in cage and allowed free access to food and water. Mouse was given carbon tetrachloride (CCl4, Sigma) in mineral oil (0.35·μl/g, single dose, i.p.) to induce liver injury. At 4 h post-injury, mice were randomized to receive vehicle (PBS), iPS cells or iHL (2×10^6 cells/in 100 μl PBS) infusions via tail veins. For the time points study, mouse received blood withdrawal (˜100 μl) from facial veins at scheduled time for liver biochemistry. When mouse was sacrificed, blood was drawn from the heart and the liver was harvested and prepared for subsequent experiments including histochemistry, cytokine assay, protein and gene expression analysis. For neutralizing antibody study, mouse was given two doses (0.5 μg/dose, i.p.) of anti-IP-10 antibodies (Abcam, ab9938, Cambridge, UK) at 4 h before and 4 h after injury. For 72 h survival study, mice received repetitive CCl4 injury at 0, 24 and 48 h. […]
The paraffin sections of livers were stained by H.E. and photo-taken under microscopy at 40× magnification to evaluate the degree of injury. Necrotic area were determined by measuring five independent fields per liver using a computerized morphometry system (MicroCam, M&T OPTICS, Taiwan) and expressed as percentage of the filed area. […]

The next series concerns hepatocytes. The experiment in a line: viability of CCl4-injured hepatocytes (MTT assay). The format is cell-based. The note with it: 0.5 or 5 ng, CCl4 concentration of 1.0 to 2.5 mM, 24 h. How it is done:
Mouse germline-competent iPS cells were provided by Kyoto University (Dr. Shinya Yamanaka) and RIKEN BRC, Japan (Takahashi K et al. (2006) Cell 126:663-676). IPS cells were cultured as previously described (Okita K et al. (2007) Nature 448: 313-317.9). […] For recombinant IP-10 (rIP-10, Peprotech, NC) study, hepatocytes were seeded on 24-well plates at the same density. The rIP-10 (0.5 ng or 5 ng) was given at 4 h post-injury. The viability of hepatocytes was evaluated at 24 h by methyl thiazol tetrazolium (MTT, Sigma) assay.

Series [3] has as its system Mice (C57/B6). The experiment in a line: 72-hour survival of repetitive CCl4-injured mice. The format is in vivo, mouse. As to conditions: repetitive CCl4 at 0, 24 and 48 h; treatment once at 4 h. How it is done: as §1, with “h. The iPS cells (2×10^6 cells/in 100 μl PBS) or recombinant IP10 (rIP10, 0.5 ng) were given once at 4 h and the mortality rate of mice was observed until 72 h post-injury.” for “h.”
To evaluate the survival effects of iPS cells and IP-10, the 72-hour survival rates were evaluated in repetitive CCl4-injured mice, to which two additional doses of CCl4 (given at 24 and 48 hours) were given after the first dose. […]

For `NC(=O)c1cccc(N)c1` [3-aminobenzamide], in series [1], the “efficiency of iPSC generation” value is recorded as “reduction in the efficiency of iPSC generation”.
Still for that read-out and setting: with `C[C@]1(c2nc3c(C(N)=O)cccc3[nH]2)CCCN1` [ABT-888] the entry was “reduction in the efficiency of iPSC generation”; with `CN(C)CC(=O)Nc1ccc2[nH]c(=O)c3ccccc3c2c1` [PJ-34], “reduction in the efficiency of iPSC generation”.
In the case of rIP-10: recombinant IP-10 (Peprotech), in the series on Mice (C57/B6) [2], the “degree of liver damage” value is “significantly reduced”. Moreover, the “viability of injured hepatocytes” value with hepatocytes is on record as “sufficiently increased the viability”. Besides, the 72-hour survival rates in the series on Mice (C57/B6) [3] was 100%.

Source of the values: patent publication US20140093486A1, “METHOD FOR PREPARING INDUCED PLURIPOTENT STEM CELLS AND ITS APPLICATIONS” (Taipei Veterans General Hospital, priority 2012, published 2014).
